Source: ChEMBL document CHEMBL3580594, “Synthesis and biological evaluation of 4-substituted fluoronucleoside analogs for the treatment of hepatitis B virus infection” (J Med Chem, 2015)

Assays:
Hepatitis B virus [1] = test: Antiviral activity against Hepatitis B virus in HepG2.2.15 cells assessed as inhibition of extracellular viral DNA replication at 1 uM after 9 days by real-time FQ-PCR analysis; type: functional; settings: HepG2 2.2.15, 216 h
Mus musculus [2] = test: Toxicity in KM mouse assessed as peripheral WBC number in blood per liter at 10 mg/kg/day, po 5 doses (reference value: 7.47 +/- 33.77 /L x 10^-9 cells); type: organism-based; settings: in vivo
Mus musculus [3] = test: Acute toxicity in KM mouse assessed as adverse effect at 200 mg/kg, iv suspended in normal saline; type: organism-based; settings: in vivo
Mus musculus [4] = test: Acute toxicity in KM mouse assessed as mortality at 3 g/kg, iv suspended in 0.5% CMC/Na solution after 14 days; type: organism-based; settings: in vivo, 3000 mg/kg, 336 h
Hepatitis B virus [5] = test: Antiviral activity against Hepatitis B virus in HepG2.2.15 cells assessed as inhibition of extracellular viral DNA replication at 1 uM after 3 days by real-time FQ-PCR analysis; type: functional; settings: HepG2 2.2.15, 72 h
Duck hepatitis B virus [6] = test: Antiviral activity against duck Hepatitis B virus infected in duck assessed as inhibition of viral DNA replication in liver at 0.2 mg/kg/day, po treatment initiated at day 10 after infection relative to control; type: functional; settings: 240 h
Hepatitis B virus [7] = test: Antiviral activity against Hepatitis B virus in HepG2.2.15 cells assessed as inhibition of intracellular viral DNA replication at 5 uM after 6 days by real-time FQ-PCR analysis; type: functional; settings: HepG2 2.2.15, 144 h
Duck hepatitis B virus [8] = test: Antiviral activity against duck Hepatitis B virus infected in duck assessed as inhibition of viral DNA replication in liver at 0.04 mg/kg/day, po treatment initiated at day 5 after infection relative to control; type: functional; settings: 120 h
Duck hepatitis B virus [9] = test: Antiviral activity against duck Hepatitis B virus infected in duck assessed as inhibition of viral DNA replication in serum at 0.04 to 20 mg/kg, po; type: functional, organism-based; settings: TDE = time-dependent effect
Duck hepatitis B virus [10] = test: Antiviral activity against duck Hepatitis B virus infected in duck assessed as inhibition of viral DNA replication in liver at 0.2 mg/kg/day, po treatment initiated at day 5 after infection relative to control; type: functional; settings: 120 h
Mus musculus [11] = test: Toxicity in KM mouse assessed as micronucleus frequency in bone marrow polychromatic erythrocyte at 40 mg/kg, po single dose after 48 hrs (reference value: 2.20 +/- 0.84 %); type: organism-based; settings: in vivo
Hepatitis B virus [12] = test: Antiviral activity against Hepatitis B virus in HepG2.2.15 cells assessed as inhibition of extracellular viral DNA replication at 0.2 uM after 6 days by real-time FQ-PCR analysis; type: functional; settings: HepG2 2.2.15, 144 h
Rattus norvegicus [13] = test: In vivo drug metabolism in rat plasma sample assessed as 1-((2R,3S,4R,5R)-5-azido-3-fluoro-4-hydroxy-5-(hydroxymethyl)tetrahydrofuran-2-yl)-4-(2-hydroxycyclopropylamino)pyrimidin-2(1H)-one formation by LC-MS/MS analysis; type: ADME, organism-based
Rattus norvegicus [14] = test: In vivo drug metabolism in rat urine sample assessed as 1-((2R,3S,4R,5R)-5-azido-3-fluoro-4-hydroxy-5-(hydroxymethyl)tetrahydrofuran-2-yl)-4-(2-hydroxycyclopropylamino)pyrimidin-2(1H)-one formation by LC-MS/MS analysis; type: ADME, organism-based
Hepatitis B virus [15] = test: Antiviral activity against Hepatitis B virus in HepG2.2.15 cells assessed as inhibition of intracellular viral DNA replication at 1 uM after 6 days by real-time FQ-PCR analysis; type: functional; settings: HepG2 2.2.15, 144 h
Mus musculus [16] = test: Toxicity in KM mouse assessed as micronucleus frequency in bone marrow polychromatic erythrocyte at 20 mg/kg, po single dose after 48 hrs (reference value: 2.20 +/- 0.84 %); type: organism-based; settings: in vivo
Duck hepatitis B virus [17] = test: Antiviral activity against duck Hepatitis B virus infected in duck assessed as inhibition of viral DNA replication in serum at 1 mg/kg/day, po measured after 3 days of treatment withdrawal; type: functional; settings: 72 h
Mus musculus [18] = test: Toxicity in KM mouse assessed as peripheral WBC number in blood per liter at 40 mg/kg, po single dose after 48 hrs (reference value: 11.10 x 2.69/L x 10^-9); type: organism-based; settings: in vivo
Mus musculus [19] = test: Toxicity in KM mouse assessed as micronucleus frequency in bone marrow polychromatic erythrocyte at 20 mg/kg, po single dose after 48 hrs (reference value: 1.20 +/- 0.45 %); type: organism-based; settings: in vivo
Mus musculus [20] = test: Toxicity in KM mouse assessed as peripheral WBC number in blood per liter at 20 mg/kg, po single dose after 48 hrs (reference value: 11.10 x 2.69/L x 10^-9 cells); type: organism-based; settings: in vivo
[21] = Cytotoxicity against human HepG2.2.15 cells by MTT assay; type: cell-based, HepG2 2.2.15
Duck hepatitis B virus [22] = test: Antiviral activity against duck Hepatitis B virus infected in duck assessed as inhibition of viral DNA replication in serum at 0.2 mg/kg/day, po treatment initiated at day 5 after infection relative to control; type: functional; settings: 120 h
Mus musculus [23] = test: Acute toxicity in KM mouse assessed as death at 400 mg/kg, iv suspended in normal saline; type: organism-based; settings: in vivo
Hepatitis B virus [24] = test: Antiviral activity against Hepatitis B virus in HepG2.2.15 cells assessed as inhibition of extracellular viral DNA replication at 5 uM after 3 days by real-time FQ-PCR analysis; type: functional; settings: HepG2 2.2.15, 72 h
Hepatitis B virus [25] = test: Antiviral activity against Hepatitis B virus in HepG2.2.15 cells assessed as inhibition of extracellular viral DNA replication at 0.2 uM after 3 days by real-time FQ-PCR analysis; type: functional; settings: HepG2 2.2.15, 72 h
Duck hepatitis B virus [26] = test: Antiviral activity against duck Hepatitis B virus infected in duck assessed as inhibition of viral DNA replication in serum at 0.2 mg/kg/day, po treatment initiated at day 10 after infection relative to control; type: functional; settings: 240 h
Mus musculus [27] = test: Toxicity in KM mouse assessed as peripheral WBC number in blood per liter at 20 mg/kg/day, po 5 doses (reference value: 7.47 +/- 33.77 /L x 10^-9 cells); type: organism-based; settings: in vivo
Hepatitis B virus [28] = test: Antiviral activity against Hepatitis B virus in HepG2.CW cells assessed as inhibition of viral DNA replication at 1 uM after 9 days by real-time FQ-PCR analysis; type: functional; settings: 216 h
Hepatitis B virus [29] = test: Antiviral activity against Hepatitis B virus in HepG2.2.15 cells assessed as inhibition of extracellular viral DNA replication at 5 uM after 9 days by real-time FQ-PCR analysis; type: functional; settings: HepG2 2.2.15, 216 h
Duck hepatitis B virus [30] = test: Antiviral activity against duck Hepatitis B virus infected in po dosed duck assessed as inhibition of viral DNA replication in serum; type: functional, organism-based
Duck hepatitis B virus [31] = test: Antiviral activity against duck Hepatitis B virus infected in duck assessed as inhibition of viral DNA replication in serum at 0.04 mg/kg/day, po treatment initiated at day 10 after infection relative to control; type: functional; settings: 240 h
Duck hepatitis B virus [32] = test: Antiviral activity against duck Hepatitis B virus infected in po dosed duck assessed as inhibition of viral DNA replication in liver; type: functional, organism-based
Hepatitis B virus [33] = test: Antiviral activity against Hepatitis B virus in HepG2.2.15 cells assessed as inhibition of intracellular viral DNA replication at 0.2 uM after 9 days by real-time FQ-PCR analysis; type: functional; settings: HepG2 2.2.15, 216 h
Hepatitis B virus [34] = test: Antiviral activity against Hepatitis B virus in HepG2.2.15 cells assessed as inhibition of intracellular/extracellular viral DNA replication at 0.2 to 5 uM by real-time FQ-PCR analysis; type: functional, organism-based; settings: HepG2 2.2.15, TDE = time-dependent effect

## [N-]=[N+]=N[C@]1(CO)O[C@@H](n2ccc(NC3CC3)nc2=O)[C@@H](F)[C@@H]1O
Hepatitis B virus [1]
  inhibition at 1 µM: 76.2%
Mus musculus [2]
  Activity: 8.09 ×10⁹ /L
Mus musculus [3]
  Activity: Non-toxic
Mus musculus [4]
  Activity: Non-toxic
Hepatitis B virus [5]
  inhibition at 1 µM: 54%
Duck hepatitis B virus [6]
  inhibition in vivo at 0.2 mg/kg/day: 68.7%
Hepatitis B virus [7]
  inhibition at 5 µM: 53%
Duck hepatitis B virus [8]
  inhibition in vivo at 0.04 mg/kg/day: 34.8%
Duck hepatitis B virus [9]
  inhibition: tde
Duck hepatitis B virus [10]
  inhibition in vivo at 0.2 mg/kg/day: 52.7%
Mus musculus [11]
  Activity: 1.4%
Hepatitis B virus [12]
  inhibition at 0.2 µM: 52%
Rattus norvegicus [13]
  Drug metabolism: metabolite_detected
Rattus norvegicus [14]
  Drug metabolism: metabolite_detected
Hepatitis B virus [15]
  inhibition at 1 µM: 49.5%
Mus musculus [16]
  Activity: 1.6%
Duck hepatitis B virus [17]
  inhibition in vivo at 1 mg/kg/day: 69.9%
Mus musculus [18]
  Activity: 9.13 ×10⁹ /L
Mus musculus [19]
  Activity: 2.8%
Mus musculus [20]
  Activity: 8.84 ×10⁹ /L
[21]
  CC50: 391 µM
Duck hepatitis B virus [22]
  inhibition in vivo at 0.2 mg/kg/day: 62.5%
Mus musculus [23]
  Activity: Toxic
Hepatitis B virus [24]
  inhibition at 5 µM: 53%
Hepatitis B virus [25]
  inhibition at 0.2 µM: 33.8%
Duck hepatitis B virus [26]
  inhibition in vivo at 0.2 mg/kg/day: 69.5%
Mus musculus [27]
  Activity: 6.53 ×10⁹ /L
Hepatitis B virus [28]
  inhibition at 1 µM: 86.6%
Hepatitis B virus [29]
  inhibition at 5 µM: 87.6%
Duck hepatitis B virus [30]
  inhibition: Dose-dependent effect
Duck hepatitis B virus [31]
  inhibition in vivo at 0.04 mg/kg/day: 43.4%
Duck hepatitis B virus [32]
  inhibition: Dose-dependent effect
Hepatitis B virus [33]
  inhibition at 0.2 µM: 46.5%
Hepatitis B virus [34]
  inhibition: tde
